Measured values published in patent US20240132521A1, “COMPOUNDS AND METHODS FOR MODULATING HER2” (Iambic Therapeutics, Inc., priority 2022, published 2024).

Key:
Type in all cases: cell-based
BaF3_HER2WT cells = BaF3_HER2WT cells (Homo sapiens, UniProt P04626); test: Cell growth inhibition assay (CellTiterGlo), BaF3_HER2WT; conditions: 3-day treatment, CellTiterGlo, read-out: Cell growth inhibition activity, HER2 WT
BaF3_EGFRWT cells = BaF3_EGFRWT cells (Homo sapiens, UniProt P00533); test: Cell growth inhibition assay (CellTiterGlo), BaF3_EGFRWT; conditions: 3-day treatment, CellTiterGlo, read-out: Cell growth inhibition activity, EGFR WT
BaF3_HER2YVMA cells = BaF3_HER2YVMA cells (Homo sapiens, UniProt P04626, DUP772-775, cells depend on it); test: Cell growth inhibition assay (CellTiterGlo), BaF3_HER2YVMA; conditions: 3-day treatment, CellTiterGlo, read-out: Cell growth inhibition activity, HER2 - YVMA
Sequence of BaF3_HER2YVMA cells (P04626 with tags, fused parts or gaps DUP772-775): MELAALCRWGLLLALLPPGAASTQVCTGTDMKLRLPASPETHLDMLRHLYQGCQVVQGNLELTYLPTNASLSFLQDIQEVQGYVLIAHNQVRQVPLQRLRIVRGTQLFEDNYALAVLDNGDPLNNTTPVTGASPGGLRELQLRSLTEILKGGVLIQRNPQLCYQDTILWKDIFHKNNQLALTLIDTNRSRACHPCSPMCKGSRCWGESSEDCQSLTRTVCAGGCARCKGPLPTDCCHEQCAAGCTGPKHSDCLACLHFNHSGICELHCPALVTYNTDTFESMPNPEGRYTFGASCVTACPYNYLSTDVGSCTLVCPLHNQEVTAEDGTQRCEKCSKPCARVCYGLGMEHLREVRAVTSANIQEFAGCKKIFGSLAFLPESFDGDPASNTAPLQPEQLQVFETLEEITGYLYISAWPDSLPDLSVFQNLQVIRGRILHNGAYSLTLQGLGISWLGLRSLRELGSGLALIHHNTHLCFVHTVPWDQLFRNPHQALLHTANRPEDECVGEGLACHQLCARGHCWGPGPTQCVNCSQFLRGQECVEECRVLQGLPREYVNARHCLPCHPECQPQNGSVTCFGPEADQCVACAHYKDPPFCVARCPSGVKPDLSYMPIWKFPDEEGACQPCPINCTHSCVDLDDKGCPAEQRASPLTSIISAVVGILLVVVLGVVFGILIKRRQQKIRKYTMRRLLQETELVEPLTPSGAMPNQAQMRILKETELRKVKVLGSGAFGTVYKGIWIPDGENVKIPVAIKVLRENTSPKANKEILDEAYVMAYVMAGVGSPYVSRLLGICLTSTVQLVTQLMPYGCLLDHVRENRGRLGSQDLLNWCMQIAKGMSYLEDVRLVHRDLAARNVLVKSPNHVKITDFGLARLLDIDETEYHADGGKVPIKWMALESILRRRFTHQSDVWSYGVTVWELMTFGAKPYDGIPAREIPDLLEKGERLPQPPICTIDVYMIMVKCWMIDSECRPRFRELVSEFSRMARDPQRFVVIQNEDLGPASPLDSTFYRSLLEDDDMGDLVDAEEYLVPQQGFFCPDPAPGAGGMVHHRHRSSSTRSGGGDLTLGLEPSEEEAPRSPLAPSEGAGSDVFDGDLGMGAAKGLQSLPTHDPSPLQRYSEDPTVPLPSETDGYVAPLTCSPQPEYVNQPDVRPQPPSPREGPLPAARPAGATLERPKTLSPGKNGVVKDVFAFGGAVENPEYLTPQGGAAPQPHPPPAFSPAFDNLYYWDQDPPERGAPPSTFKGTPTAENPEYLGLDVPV

Sequence of BaF3_HER2WT cells (P04626 whole entry, change not shown): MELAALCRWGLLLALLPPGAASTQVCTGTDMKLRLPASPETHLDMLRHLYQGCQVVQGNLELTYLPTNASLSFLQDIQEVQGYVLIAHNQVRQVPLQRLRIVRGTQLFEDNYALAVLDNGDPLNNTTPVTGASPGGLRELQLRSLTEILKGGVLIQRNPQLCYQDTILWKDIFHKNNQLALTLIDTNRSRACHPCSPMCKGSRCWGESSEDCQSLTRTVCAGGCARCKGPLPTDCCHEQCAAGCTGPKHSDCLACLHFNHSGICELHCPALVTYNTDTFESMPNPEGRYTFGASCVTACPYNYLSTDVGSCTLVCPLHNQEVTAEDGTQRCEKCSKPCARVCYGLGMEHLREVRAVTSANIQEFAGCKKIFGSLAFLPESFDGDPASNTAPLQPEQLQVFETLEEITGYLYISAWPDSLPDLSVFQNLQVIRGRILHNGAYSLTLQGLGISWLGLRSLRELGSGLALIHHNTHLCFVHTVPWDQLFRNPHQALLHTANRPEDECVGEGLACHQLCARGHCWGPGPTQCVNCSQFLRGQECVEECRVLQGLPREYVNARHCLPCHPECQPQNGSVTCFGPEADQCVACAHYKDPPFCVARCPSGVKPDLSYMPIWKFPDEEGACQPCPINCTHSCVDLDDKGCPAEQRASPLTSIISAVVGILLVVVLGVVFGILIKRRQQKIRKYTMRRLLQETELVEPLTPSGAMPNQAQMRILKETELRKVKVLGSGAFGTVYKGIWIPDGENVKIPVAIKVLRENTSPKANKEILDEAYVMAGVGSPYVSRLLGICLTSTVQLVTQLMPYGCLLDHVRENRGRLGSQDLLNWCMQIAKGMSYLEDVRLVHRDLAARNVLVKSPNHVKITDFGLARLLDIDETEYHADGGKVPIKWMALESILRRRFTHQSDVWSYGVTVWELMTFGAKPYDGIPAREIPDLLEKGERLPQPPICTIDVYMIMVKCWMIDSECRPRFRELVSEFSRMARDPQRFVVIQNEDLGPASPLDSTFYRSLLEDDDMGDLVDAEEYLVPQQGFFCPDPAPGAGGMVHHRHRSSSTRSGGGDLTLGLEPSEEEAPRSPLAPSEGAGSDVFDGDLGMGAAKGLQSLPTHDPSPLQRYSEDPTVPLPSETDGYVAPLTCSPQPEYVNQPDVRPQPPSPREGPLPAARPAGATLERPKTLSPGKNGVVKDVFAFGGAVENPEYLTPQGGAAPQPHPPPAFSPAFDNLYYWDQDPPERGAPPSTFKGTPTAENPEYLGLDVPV
Sequence of BaF3_EGFRWT cells (P00533 whole entry, change not shown): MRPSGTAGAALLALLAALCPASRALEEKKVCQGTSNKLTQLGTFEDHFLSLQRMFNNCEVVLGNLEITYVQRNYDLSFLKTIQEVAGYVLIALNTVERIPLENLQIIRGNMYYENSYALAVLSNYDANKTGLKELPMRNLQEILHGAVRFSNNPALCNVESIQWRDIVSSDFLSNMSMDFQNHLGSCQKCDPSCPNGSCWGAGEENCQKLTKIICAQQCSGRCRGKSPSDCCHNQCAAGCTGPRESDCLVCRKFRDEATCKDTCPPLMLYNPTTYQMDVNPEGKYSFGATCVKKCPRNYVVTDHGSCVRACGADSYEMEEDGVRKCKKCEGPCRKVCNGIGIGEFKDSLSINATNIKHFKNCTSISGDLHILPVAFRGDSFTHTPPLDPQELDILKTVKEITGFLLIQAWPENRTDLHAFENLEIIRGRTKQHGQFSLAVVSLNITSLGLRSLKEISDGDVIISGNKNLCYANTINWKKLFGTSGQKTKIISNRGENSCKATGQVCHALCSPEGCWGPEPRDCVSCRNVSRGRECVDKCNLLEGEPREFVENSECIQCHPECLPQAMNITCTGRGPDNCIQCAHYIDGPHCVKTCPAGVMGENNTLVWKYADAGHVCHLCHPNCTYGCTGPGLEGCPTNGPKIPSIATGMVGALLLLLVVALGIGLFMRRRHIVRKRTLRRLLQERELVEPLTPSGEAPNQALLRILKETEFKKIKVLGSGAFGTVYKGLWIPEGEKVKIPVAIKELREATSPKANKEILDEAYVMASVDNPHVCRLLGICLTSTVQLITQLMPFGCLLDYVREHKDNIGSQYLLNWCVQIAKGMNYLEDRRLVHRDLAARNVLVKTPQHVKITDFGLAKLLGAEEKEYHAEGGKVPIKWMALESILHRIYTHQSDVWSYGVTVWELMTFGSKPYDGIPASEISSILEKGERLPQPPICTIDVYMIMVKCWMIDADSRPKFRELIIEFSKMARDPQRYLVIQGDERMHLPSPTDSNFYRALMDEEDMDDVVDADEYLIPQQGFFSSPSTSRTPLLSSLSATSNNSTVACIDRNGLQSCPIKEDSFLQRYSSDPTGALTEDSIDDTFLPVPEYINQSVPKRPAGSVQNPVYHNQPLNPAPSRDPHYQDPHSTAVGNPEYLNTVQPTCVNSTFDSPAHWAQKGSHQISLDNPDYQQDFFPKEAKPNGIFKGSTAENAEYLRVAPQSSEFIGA

Row | SMILES | GI50 (BaF3_HER2WT cells) | GI50 (BaF3_EGFRWT cells) | GI50 (BaF3_HER2YVMA cells)
1 | Cc1cc(Nc2ncnn3ccc(C4CN(C(=O)/C=C/CN5CC(F)C5)C4)c23)ccc1Oc1ccn2ncnc2c1 [Example 38, (E)-1-(3-(4-((4-([1,2,4]triazolo[1,5-a]pyridin-7-yloxy)-3-methylphenyl)amino)pyrrolo[2,1-f][1,2,4]triazin-5-yl)azetidin-1-yl)-4-(3-fluoroazetidin-1-yl)but-2-en-1-one] | < 200 nM | 1500 to 5000 nM | < 200 nM
2 | COC/C=C/C(=O)N1CC(c2ccn3ncnc(Nc4ccc(Oc5ccn6ncnc6c5)c(C)c4)c23)C1 [Example 40, (E)-1-(3-(4-((4-([1,2,4]triazolo[1,5-a]pyridin-7-yloxy)-3-methylphenyl)amino)pyrrolo[2,1-f][1,2,4]triazin-5-yl)azetidin-1-yl)-4-methoxybut-2-en-1-one] | 200 to 500 nM | 1500 to 5000 nM | 200 to 500 nM
3 | COC1CCN(C/C=C/C(=O)N2CC(c3ccn4ncnc(Nc5ccc(Oc6ccn7ncnc7c6)c(C)c5)c34)C2)C1 (stereo not drawn) [Example 41, (E)-1-(3-(4-((4-([1,2,4]triazolo[1,5-a]pyridin-7-yloxy)-3-methylphenyl)amino)pyrrolo[2,1-f][1,2,4]triazin-5-yl)azetidin-1-yl)-4-(3-methoxypyrrolidin-1-yl)but-2-en-1-one] | < 200 nM | 1500 to 5000 nM | < 200 nM
4 | COC1CCN(C/C=C/C(=O)N2CC(c3ccn4ncnc(Nc5ccc(Oc6ccn7ncnc7c6)c(C)c5)c34)C2)CC1 [Example 42, (E)-1-(3-(4-((4-([1,2,4]triazolo[1,5-a]pyridin-7-yloxy)-3-methylphenyl)amino)pyrrolo[2,1-f][1,2,4]triazin-5-yl)azetidin-1-yl)-4-(4-methoxypiperidin-1-yl)but-2-en-1-one] | < 200 nM | 1500 to 5000 nM | < 200 nM
5 | Cc1cc(Nc2ncnn3ccc(N4C5CCC4CN(C(=O)/C=C/CN(C)C)C5)c23)ccc1Oc1ccn2ncnc2c1 [Example 45, (E)-1-(8-(4-((4-([1,2,4]triazolo[1,5-a]pyridin-7-yloxy)-3-methylphenyl)amino)pyrrolo[2,1-f][1,2,4]triazin-5-yl)-3,8-diazabicyclo[3.2.1]octan-3-yl)-4-(dimethylamino)but-2-en-1-one] | < 200 nM | 1500 to 5000 nM | < 200 nM
6 | C=CC(=O)N1C2CCC1CN(c1ccn3ncnc(Nc4ccc(Oc5ccn6ncnc6c5)c(C)c4)c13)C2 [Example 46, 1-(3-(4-((4-([1,2,4]triazolo[1,5-a]pyridin-7-yloxy)-3-methylphenyl)amino)pyrrolo[2,1-f][1,2,4]triazin-5-yl)-3,8-diazabicyclo[3.2.1]octan-8-yl)prop-2-en-1-one] | < 200 nM | 200 to 500 nM | < 200 nM
7 | C=C(CN(C)C)C(=O)N1C2CCC1CN(c1ccn3ncnc(Nc4ccc(Oc5ccn6ncnc6c5)c(C)c4)c13)C2 [Example 48, 1-(3-(4-((4-([1,2,4]triazolo[1,5-a]pyridin-7-yloxy)-3-methylphenyl)amino)pyrrolo[2,1-f][1,2,4]triazin-5-yl)-3,8-diazabicyclo[3.2.1]octan-8-yl)-2-((dimethylamino)methyl)prop-2-en-1-one] | 200 to 500 nM | 1500 to 5000 nM | 1500 to 5000 nM
8 | C=C(CN(C)C)C(=O)N1CC2CCC(C1)N2c1ccn2ncnc(Nc3ccc(Oc4ccn5ncnc5c4)c(C)c3)c12 [Example 49, 1-(8-(4-((4-([1,2,4]triazolo[1,5-a]pyridin-7-yloxy)-3-methylphenyl)amino)pyrrolo[2,1-f][1,2,4]triazin-5-yl)-3,8-diazabicyclo[3.2.1]octan-3-yl)-2-((dimethylamino)methyl)prop-2-en-1-one acetate] | < 200 nM | 1500 to 5000 nM | < 200 nM
9 | COC1(c2ccn3ncnc(Nc4ccc(Oc5ccn6ncnc6c5)c(C)c4)c23)CCN(C(=O)/C=C/CN(C)C)CC1 [Example 52, (E)-1-(4-(4-((4-([1,2,4]triazolo[1,5-a]pyridin-7-yloxy)-3-methylphenyl)amino)pyrrolo[2,1-f][1,2,4]triazin-5-yl)-4-methoxypiperidin-1-yl)-4-(dimethylamino)but-2-en-1-one] | 200 to 500 nM | 1500 to 5000 nM | 500 to 1500 nM
10 | Cc1cc(Nc2ncnn3ccc(N4CCN(C(=O)/C=C/CN(C)C)CC4=O)c23)ccc1Oc1ccn2ncnc2c1 [Example 54, (E)-1-(4-((4-([1,2,4]triazolo[1,5-a]pyridin-7-yloxy)-3-methylphenyl)amino)pyrrolo[2,1-f][1,2,4]triazin-5-yl)-4-(4-(dimethylamino)but-2-enoyl)piperazin-2-one] | 500 to 1500 nM | 1500 to 5000 nM | 1500 to 5000 nM

Continued, values first:

Row | GI50 (BaF3_HER2WT cells) | GI50 (BaF3_EGFRWT cells) | GI50 (BaF3_HER2YVMA cells) | SMILES
11 | < 200 nM | 1500 to 5000 nM | 200 to 500 nM | Cc1cc(Nc2ncnn3ccc(C4CN(C(=O)/C=C/CC(C)C)C4)c23)ccc1Oc1ccn2ncnc2c1 [Example 43, (E)-1-(3-(4-((4-([1,2,4]triazolo[1,5-a]pyridin-7-yloxy)-3-methylphenyl)amino)pyrrolo[2,1-f][1,2,4]triazin-5-yl)azetidin-1-yl)-5-methylhex-2-en-1-one]
12 | < 200 nM | 1500 to 5000 nM | < 200 nM | C=CC(=O)N1CC2CCC(C1)N2c1ccn2ncnc(Nc3ccc(Oc4ccn5ncnc5c4)c(C)c3)c12 [Example 44, 1-(8-(4-((4-([1,2,4]triazolo[1,5-a]pyridin-7-yloxy)-3-methylphenyl)amino)pyrrolo[2,1-f][1,2,4]triazin-5-yl)-3,8-diazabicyclo[3.2.1]octan-3-yl)prop-2-en-1-one]
13 | < 200 nM | 1500 to 5000 nM | < 200 nM | Cc1cc(Nc2ncnn3ccc(N4CC5CCC(C4)N5C(=O)/C=C/CN(C)C)c23)ccc1Oc1ccn2ncnc2c1 [Example 47, (E)-1-(3-(4-((4-([1,2,4]triazolo[1,5-a]pyridin-7-yloxy)-3-methylphenyl)amino)pyrrolo[2,1-f][1,2,4]triazin-5-yl)-3,8-diazabicyclo[3.2.1]octan-8-yl)-4-(dimethylamino)but-2-en-1-one]
14 | 200 to 500 nM | 1500 to 5000 nM | 500 to 1500 nM | Cc1cc(Nc2ncnn3ccc(C4(O)CCN(C(=O)/C=C/CN(C)C)CC4)c23)ccc1Oc1ccn2ncnc2c1 [Example 50, (E)-1-(4-(4-((4-([1,2,4]triazolo[1,5-a]pyridin-7-yloxy)-3-methylphenyl)amino)pyrrolo[2,1-f][1,2,4]triazin-5-yl)-4-hydroxypiperidin-1-yl)-4-(dimethylamino)but-2-en-1-one]
15 | < 200 nM | 1500 to 5000 nM | < 200 nM | Cc1cc(Nc2ncnn3ccc(C4(O)CN(C(=O)/C=C/CN(C)C)C4)c23)ccc1Oc1ccn2ncnc2c1 [Example 51, (E)-1-(3-(4-((4-([1,2,4]triazolo[1,5-a]pyridin-7-yloxy)-3-methylphenyl)amino)pyrrolo[2,1-f][1,2,4]triazin-5-yl)-3-hydroxyazetidine-1-yl)-4-(dimethylamino)but-2-en-1-one]
16 | < 200 nM | 1500 to 5000 nM | < 200 nM | Cc1cc(Nc2ncnn3ccc(C4=CCN(C(=O)/C=C/CN(C)C)CC4)c23)ccc1Oc1ccn2ncnc2c1 [Example 53, (E)-1-(4-(4-((4-([1,2,4]triazolo[1,5-a]pyridin-7-yloxy)-3-methylphenyl)amino)pyrrolo[2,1-f][1,2,4]triazin-5-yl)-3,6-dihydropyridin-1(2H)-yl)-4-(dimethylamino)but-2-en-1-one]
